This experiment relates to 786-0 complex spheroids with HUVEC/MSC, growth % test/control. Nature of the experiment: Anticancer human tumor 786-0 cell line growth inhibition [AhR].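 On all read-outs here: compound exposure lasted seven days before the read-out.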 As to conditions: for viability, T/C: stronger effect = lower value. The text has this:
Multicellular complex tumor spheroid response to aryl hydrocarbon receptor antagonists in combination with a variety of drugs and investigational agents in selected tumor cell lines
The current study was undertaken to assess response to aryl hydrocarbon receptor antagonists in combination with standard-of-care drugs and investigational agents in solid tumor complex spheroid models. Complex spheroids include a stromal component modeled by human endothelial cells (HUVEC) and fibroblasts modeled by human mesenchymal stem cells (MSCs). The concentration ranges selected for each drug and investigational agent were based upon clinically achievable concentrations if the clinical Cmax of the agent was known.
Compounds. The drugs and investigational agents: BAY 2416964 (NSC825713), GNF351 (NSC835774), CH-223191 (NSC835775), CPI-455 (NSC825282), aza-TdCyd (NSC777586), decitabine (NSC127716), belinostat (NSC758774), entinostat (NSC756642), pevonedistat (NSC761192), tazemetostat (NSC777109), talazoparib (NSC765396), olaparib (NSC753686), selinexor (NSC780203), nedisertib (M3814, NSC802822), bortezomib (NSC756655), venetoclax (NSC766270), doxorubicin (NSC123127), elimusertib (BAY189344, NSC800525), ceralasertib (AZD6738, NSC777638), TAK-243 (NSC785004), alisertib (NSC759677), etoposide (NSC141540), topotecan (NSC609699), eribulin (NSC707389), gemcitabine (NSC613327), carboplatin (NSC241240), cisplatin (NSC119875), and SN-38 (NSC673596) were obtained from the National Cancer Institute (NCI) Developmental Therapeutics Program Chemical Repository (32). The FDA-approved anticancer drug set is available from the Developmental Therapeutics Program at https://dtp.cancer.gov/organization/dscb/obtaining/available plates.htm. […] The stock solutions were prepared in dimethyl sulfoxide (DMSO, Sigma-Aldrich, St. Louis, MO, cat. D2650), except for the platinum compounds which were prepared in saline (Quality Biological, Gaithersburg, MD, cat. 114-055-101), at 800-fold the tested concentration and stored at -70 degrees C prior to their use. All drugs and investigational agents were tested over a range starting from a high concentration at or near the clinical Cmax and decreasing in half-log increments. If the clinical Cmax for an agent had not been determined, the highest concentration tested was 10 microM (Table 1).
Cell Culture. All cells were maintained in an incubator at 37 degrees C and 5% CO2 with 95% humidity. The PDC lines were cultured according to standard operating procedures established by the NCI PDMR (https://pdmr.cancer.gov). Briefly, all PDCs were thawed and cultured in Matrigel-coated flasks prepared with a working solution of 1X Ham's F-12 nutrient mix, without supplementation (Invitrogen, Waltham, MA, cat. 11765054), 100 U/mL penicillin-streptomycin (Invitrogen, cat. 15140122), and 2.5% Matrigel (Corning Inc., Corning, NY, cat. 354248) for the first three passages. All PDCs were cultured in complete DMEM/F-12 media containing advanced DMEM/F-12 (Invitrogen, cat. 12634028), 4.9% defined fetal bovine serum, heat inactivated (HyClone Laboratories Inc., Logan, UT, cat. SH30070.03HI), 389 ng/mL hydrocortisone (Sigma-Aldrich, cat. H4001), 9.7 ng/mL human EGF recombinant protein (Invitrogen, cat. PHG0313), 23.4 microg/mL adenine (Sigma-Aldrich, cat. A2786), 97.3 U/mL penicillin-streptomycin (Invitrogen, cat. 15140122), 1.9 mM L-glutamine (Invitrogen, cat. 25030081), and 9.7 microM Y-27632 dihydrochloride (Tocris Bioscience, Bristol, United Kingdom, cat. 1254). The PDCs were cultured in complete DMEM/F12 media without 10 microM Y-27632 dihydrochloride for at least two passages prior to the screen. The established cell lines NCI-H1341 and […] were cultured in DMEM/F-12, HEPES (Invitrogen, cat. 11330032), 5% defined fetal bovine serum (HyClone Laboratories Inc., cat. SH30070.03), ITS premix universal culture supplement [insulin (5 microg/mL), transferrin (5 microg/mL), and selenious acid (5 ng/mL)] […]

Setting [1] is: curve of first compound, second compound 0.1 µM.
Where [2] appears, read: curve of first compound, second compound 0.316 µM.
Where [3] appears, read: curve of first compound, second compound 1 µM.
Setting [4] is: curve of first compound, second compound 3.16 µM.
The mark [5] stands for this setting: curve of first compound, second compound 10 µM.
The mark [6] stands for this setting: second compound 0.1 µM, first compound 0.0316 µM.
Where [7] appears, read: second compound 0.1 µM, first compound 0.1 µM.
Where [8] appears, read: second compound 0.1 µM, first compound 0.316 µM.
Setting [9] is: second compound 0.1 µM, first compound 1 µM.
[10] abbreviates: second compound 0.316 µM, first compound 0.0316 µM.
Setting [11] is: second compound 0.316 µM, first compound 0.1 µM.
[12] abbreviates: second compound 0.316 µM, first compound 0.316 µM.
[13] abbreviates: second compound 0.316 µM, first compound 1 µM.
[14] abbreviates: second compound 1 µM, first compound 0.0316 µM.
The mark [15] stands for this setting: second compound 1 µM, first compound 0.1 µM.
[16] abbreviates: second compound 1 µM, first compound 0.316 µM.
The mark [17] stands for this setting: second compound 1 µM, first compound 1 µM.
Where [18] appears, read: second compound 3.16 µM, first compound 0.0316 µM.
Where [19] appears, read: second compound 3.16 µM, first compound 0.1 µM.
Setting [20] is: second compound 3.16 µM, first compound 0.316 µM.
[21] abbreviates: second compound 3.16 µM, first compound 1 µM.
Where [22] appears, read: second compound 10 µM, first compound 0.0316 µM.
[23] abbreviates: second compound 10 µM, first compound 0.1 µM.
Where [24] appears, read: second compound 10 µM, first compound 0.316 µM.
The mark [25] stands for this setting: second compound 10 µM, first compound 1 µM.

Several values for one entry are separate records, joined by “and”; a condition that tells them apart may be missing. Identical values can stand only once.

On to `CC(C)c1c(-c2ccccc2)nc2c(C#N)c[nH]n2c1=O`, for which the viability, T/C was 101% and 108% and 93.8% (compound 0.0316 µM); 106% and 99.9% and 109% (compound 0.1 µM); 101% and 103% and 108% (compound 0.316 µM); 105% and 101% and 100% (compound 1 µM); 97.5% and 110% and 105% (compound 3.16 µM); 99% and 98% and 97.1% (compound 10 µM). Besides, the IC50 (curve of compound) is > 10 µM.

Turning to `CC(CO)NC(=O)c1cc(-c2ccc(Cl)cc2)nn(-c2cnn(C)c2)c1=O` (stereo not given), where the note is “compound 0.1 µM”, the viability, T/C is 100% [middle of 20 runs]. The half-inhibitory concentration (IC50) (compound alone, run of 08/08/2022) is > 10 µM.

For `CC1COCCN1c1cc(C2(S(C)(=N)=O)CC2)nc(-c2ccnc3[nH]ccc23)n1` (stereo not given), the viability, T/C is 110% and 102% and 98.7% (compound 0.0316 µM); 110% and 102% and 98.6% (compound 0.1 µM); 96.8% and 101% and 93.2% (compound 0.316 µM); 96.6% and 96.8% and 94% (compound 1 µM); 64.5% and 88.2% and 47.7% (compound 3.16 µM); 17.9% and 27.9% and 15.4% (compound 10 µM). Moreover, the IC50 (curve of compound) is 4.62 µM and 6.58 µM and 2.99 µM.

As for `COc1ccc([C@@H](O)c2cc(-c3ncnc4cc(N5CCOCC5)ccc34)c(F)cc2Cl)nn1`, the viability, T/C is 96.7% and 103% and 114% (compound 0.0316 µM); 93.2% and 100% and 104% (compound 0.1 µM); 98.7% and 110% and 115% (compound 0.316 µM); 84.7% and 105% and 108% (compound 1 µM); 91.4% and 103% and 111% (compound 3.16 µM); 70.2% and 91.1% and 85.7% (compound 10 µM). Also, the IC50 (curve of compound) was > 10 µM.

`Cc1ccccc1N=Nc1ccc(NC(=O)c2ccnn2C)c(C)c1`: the viability, T/C by setting is: (compound 0.1 µM) 99.5% [middle of 20 runs]; (compound 0.316 µM) 99.1% [middle of 20 runs]; (compound 1 µM) 97.1% [middle of 20 runs]. Also, the IC50 (compound alone, run of 08/22/2022) was > 10 µM.

Regarding `Cc1cncc(-c2nc(NCCc3c[nH]c4ccccc34)c3ncn(C(C)C)c3n2)c1`, the viability, T/C is 114% [middle of 20 runs] (compound 0.1 µM) and 11.6% [middle of 20 runs] (compound 10 µM). In addition, the concentration for half-maximal inhibition (IC50) (compound alone, run of 08/16/2022) is 5.18 µM [middle of 23 runs].

`COc1cccc2c1C(=O)c1c(O)c3c(c(O)c1C2=O)CC(O)(C(=O)CO)CC3OC1CC(N)C(O)C(C)O1` (stereo not given) + CC(CO)NC(=O)c1cc(-c2ccc(Cl)cc2)nn(-c2cnn(C)c2)c1=O: the IC50 was 0.043 µM under setting [1]; < 0.0316 µM under setting [2]; 0.0455 µM under setting [3]; < 0.0316 µM under setting [4]; < 0.0316 µM under setting [5]. Also, the viability, T/C is, setting by setting: under setting [6], 54.4%; under setting [7], 37.9%; under setting [8], 12.5%; under setting [9], 2.51%; (second compound 0.1 µM, first compound 3.16 µM) 0.63%; (second compound 0.1 µM, first compound 10 µM) 0.56%. Moreover, the viability, T/C was 46.7% under setting [10]; 40% under setting [11]; 14.3% under setting [12]; 3.11% under setting [13]; 0.25% (second compound 0.316 µM, first compound 3.16 µM); 0.6% (second compound 0.316 µM, first compound 10 µM). The viability, T/C was 54.3% under setting [14]; 40.6% under setting [15]; 11.6% under setting [16]; 3.23% under setting [17]; 0.45% (second compound 1 µM, first compound 3.16 µM); 0.49% (second compound 1 µM, first compound 10 µM). Moreover, the viability, T/C is, setting by setting: under setting [18], 47.4%; under setting [19], 42.3%; under setting [20], 10.9%; under setting [21], 3.69%; (second compound 3.16 µM, first compound 3.16 µM) 0.34%; (second compound 3.16 µM, first compound 10 µM) 0.41%. Moreover, the viability, T/C is 44.9% under setting [22]; 37.5% under setting [23]; 11.2% under setting [24]; 1.48% under setting [25]; 0.72% (second compound 10 µM, first compound 3.16 µM); 0.86% (second compound 10 µM, first compound 10 µM).

Consider `Nc1ncn(C2CC(O)C(CO)O2)c(=O)n1` (stereo not given) + CC(CO)NC(=O)c1cc(-c2ccc(Cl)cc2)nn(-c2cnn(C)c2)c1=O, for which the half-maximal inhibitory concentration (IC50) is, setting by setting: under setting [1], > 1 µM; under setting [2], > 1 µM; under setting [3], > 1 µM; under setting [4], > 1 µM; under setting [5], > 1 µM. Besides, the viability, T/C was 96.2% (second compound 0.1 µM, first compound 0.00316 µM); 79.7% (second compound 0.1 µM, first compound 0.01 µM); 72.4% under setting [6]; 75.3% under setting [7]; 75.3% under setting [8]; 62% under setting [9]. Further, the viability, T/C runs as follows: (second compound 0.316 µM, first compound 0.00316 µM) 69%; (second compound 0.316 µM, first compound 0.01 µM) 66%; under setting [10], 75.3%; under setting [11], 62.1%; under setting [12], 57.9%; under setting [13], 55%. Further, the viability, T/C reads like this: (second compound 1 µM, first compound 0.00316 µM) 82.4%; (second compound 1 µM, first compound 0.01 µM) 109%; under setting [14], 88.6%; under setting [15], 72.1%; under setting [16], 65.3%; under setting [17], 61%. Also, the viability, T/C is 108% (second compound 3.16 µM, first compound 0.00316 µM); 94.1% (second compound 3.16 µM, first compound 0.01 µM); 93.8% under setting [18]; 91.2% under setting [19]; 77.7% under setting [20]; 64.3% under setting [21]. Besides, the viability, T/C is, setting by setting: (second compound 10 µM, first compound 0.00316 µM) 116%; (second compound 10 µM, first compound 0.01 µM) 121%; under setting [22], 122%; under setting [23], 117%; under setting [24], 109%; under setting [25], 73.1%.

For the origin of these results see PubChem BioAssay AID1919003 (Molecular Pharmacology Branch, DTP, NCI, 2023).
